row,melting point [°C],Structure (SMILES)
1,145,"Cc1cccc(-c2[nH]c(C(C)C)nc2-c2ccc(F)c(-c3ccc(NC(=O)NN4CCN(C)CC4)cc3)c2)n1 [Example 92, N-{2′-Fluoro-5′-[2-isopropyl-5-(6-methylpyridin-2-yl)-1H-imidazol-4-yl]-1,1′-biphenyl-4-yl}-N′-(4-methylpiperazin-1-yl)urea]"
2,103 to 106,"Cc1cccc(-c2[nH]c(C(C)C)nc2-c2ccc(F)c(-c3ccc[nH]3)c2)n1 [Example 93, 2-{4-[4-Fluoro-3-(1H-pyrrol-2-yl)phenyl]-2-isopropyl-1H-imidazol-5-yl}-6-methylpyridine]"
3,145,"Cc1cccc(-c2[nH]c(C(C)C)nc2-c2ccc(F)c(-c3ccc(NC(=O)NC4CCN(C)CC4)cc3)c2)n1 [Example 95, N-{2′-Fluoro-5′-[2-isopropyl-5-(6-methylpyridin-2-yl)-1H-imidazol-4-yl]-1,1′-biphenyl-4-yl}-N′-(1-methylpiperidin-4-yl)urea]"
4,109 to 111,"Cc1cccc(-c2[nH]c(C(C)C)nc2-c2ccc(F)c(-c3ccc(N4CCOCC4)cc3)c2)n1 [Example 100, 4-{2′-Fluoro-5′-[2-isopropyl-5-(6-methylpyridin-2-yl)-1H-imidazol-4-yl]-1,1′-biphenyl-4-yl}morpholine]"
5,160 to 161,"Cc1cccc(-c2[nH]c(C(C)C)nc2-c2ccc(F)c(-c3ccc(C(=O)O)cc3)c2)n1 [Example 101, 2′-Fluoro-5′-[2-isopropyl-5-(6-methylpyridin-2-yl)-1H-imidazol-4-yl]-1,1′-biphenyl-4-carboxylic acid]"
6,233 to 235,"Cc1cccc(-c2[nH]c(C(C)C)nc2-c2ccc(F)c(-c3c[nH]nn3)c2)n1 [Example 106, 2-{4-[4-Fluoro-3-(1H-1,2,3-triazol-4-yl)phenyl]-2-isopropyl-1H-imidazol-5-yl}-6-methylpyridine]"
7,76 to 78,"CCn1cc(-c2cc(-c3[nH]c(C(C)C)nc3-c3cccc(C)n3)ccc2F)cn1 [Example 107, 2-{5-[3-(1-Ethyl-1H-pyrazol-4-yl)-4-fluorophenyl]-2-isopropyl-1H-imidazol-4-yl}-6-methylpyridine]"
8,84 to 85,"Cc1cccc(-c2nc(C(C)C)[nH]c2-c2ccc(F)c(-c3cnn(C(C)C)c3)c2)n1 [Example 108, 2-{5-[4-Fluoro-3-(1-isopropyl-1H-pyrazol-4-yl)phenyl]-2-isopropyl-1H-imidazol-4-yl}-6-methylpyridine]"
9,119 to 129,"Cc1cccc(-c2nc(C(C)C)[nH]c2-c2ccc(F)c(-c3ccc(NS(=O)(=O)C4CC4)cc3)c2)n1 [Example 111, N-{2′-Fluoro-5′-[2-isopropyl-4-(6-methylpyridin-2-yl)-1H-imidazol-5-yl]-1,1′-biphenyl-4-yl}cyclopropanesulfonamide]"
10,78 to 90,"Cc1cccc(-c2nc(C(C)C)[nH]c2-c2ccc(F)c(-c3ccco3)c2)n1 [Example 113, 2-{5-[4-Fluoro-3-(2-furyl)phenyl]-2-isopropyl-1H-imidazol-4-yl}-6-methylpyridine]"
11,143 to 145,"Cc1cccc(-c2[nH]c(C(C)C)nc2-c2ccc(F)c(-c3ccc(O)cc3)c2)n1 [Example 114, 2′-Fluoro-5′-[2-isopropyl-5-(6-methylpyridin-2-yl)-1H-imidazol-4-yl]-1,1′-biphenyl-4-ol]"
12,106 to 110,"Cc1cccc(-c2[nH]c(C(C)C)nc2-c2ccc(F)c(-c3cc[nH]c3)c2)n1 [Example 123, 2-{4-[4-Fluoro-3-(1H-pyrrol-3-yl)phenyl]-2-isopropyl-1H-imidazol-5-yl}-6-methylpyridine]"
13,105 to 108,"Cc1cccc(-c2[nH]c(C(C)C)nc2-c2ccc(F)c(-c3ccc(S(C)(=O)=O)cn3)c2)n1 [Example 124, 2-{2-Fluoro-5-[2-isopropyl-5-(6-methylpyridin-2-yl)-1H-imidazol-4-yl]phenyl}-5-(methylsulfonyl)pyridine]"

# From US20070275968A1, “Substituted Biphenyl Derivative” (priority 2004, published 2007)
